Experimental findings from PMC12293604, “Anticancer Effect of Nature-Inspired Indolizine-Based Pentathiepines in 2D and 3D Cellular Model” (Cancers, 2025) are described below.

Data set [1] has as its system HCT116. Briefly: MTT cell viability assay, HCT116. The format is cell-based. The following applies: Homo sapiens, HCT-116, HCT116, 48h treatment, mean ± S.D. As for the experimental part:
(§1) The human cancer cell lines MCF7 (HTB-22, breast adenocarcinoma), MDA-MB-231 (HTB-26, breast adenocarcinoma), HCT116 (CCL-247, colorectal carcinoma), and A549 (CRM-CCL-185, lung carcinoma) were obtained from the American Type Culture Collection (ATCC, Manassas, VA, USA). The fibroblast cell line CR9, kindly provided by Dr. Guven, was maintained in ISCOVE medium. HCT116 cells were cultured in Dulbecco’s Modified Eagle Medium (DMEM), whereas A549, MCF7, and MDA-MB-231 cells were maintained in Roswell Park Memorial Institute 1640 (RPMI-1640) medium. All media were supplemented with 10% fetal bovine serum (FBS), 1% L-glutamine, and 0.5% antibiotic mixture (penicillin, streptomycin, and neomycin). Cell cultures were maintained at 37 °C in a humidified atmosphere with 5% CO2, following standard culture protocols. Additionally, for HCT116 cells, the culture medium was further supplemented with 1% sodium pyruvate and 1% non-essential amino acids.
(§2) To evaluate the impact of the tested PTEs on cell viability, a colorimetric MTT assay was performed as previously described. Briefly, cells were seeded in 96-well microplates at initial densities of 5 × 10^3 cells per well for the MCF7, MDA-MB231, and A549 cell lines, and 4 × 10^3 cells per well for HCT116 cells. After an initial 24 h incubation period to allow for cell attachment and growth, the cultures were treated with different concentrations of PTEs (0.25–20 µM). Following 48 h of treatment, 50 μL of MTT solution (2 mg/mL in PBS) was added to each well, and the plates were incubated at 37 °C for 3 h to allow for MTT reduction by metabolically active cells. The resulting formazan crystals were solubilized, and cell viability was measured by recording the absorbance at 570 nm using an iMark Microplate Reader (BIORAD, Segrate, Milan, Italy). The cytotoxic effectiveness of the compounds was expressed as IC50 values, which were calculated from dose–response curves fitted with non-linear regression analysis using Calcusyn version 1.1.4. software (Biosoft, Cambridge, UK).

For data set [2], the system named is MCF7, MDA-MB-231, A549, and HCT116 cells. Nature of the data set: MTT cell viability assay, summary across the cell line panel. The format is cell-based, human. The conditions noted are these: 48 h treatment, across tested cell lines. The protocol:
The fibroblast cell line CR9, kindly provided by Dr. Guven, was maintained in ISCOVE medium. […] All media were supplemented with 10% fetal bovine serum (FBS), 1% L-glutamine, and 0.5% antibiotic mixture (penicillin, streptomycin, and neomycin). Cell cultures were maintained at 37 °C in a humidified atmosphere with 5% CO2, following standard culture protocols. Additionally, for HCT116 cells, the culture medium was further supplemented with 1% sodium pyruvate and 1% non-essential amino acids.
as §2, with “Following 48 h of treatment, 50 μL of MTT solution (2 mg/mL in PBS) was added to each well, and the plates were incubated at 37 °C for 3 h to allow for MTT reduction by metabolically active cells.” left out

In data set [3] the test system is CR9 human fibroblast cells. Briefly: MTT cell viability assay, CR9 fibroblasts. The data set is classed as cell-based. The conditions noted are these: 48h treatment, mean ± S.D. As for the experimental part: as §1, §2
Data set [4] relates to MCF7, MDA-MB231, A549 and HCT116 cell lines. Nature of the data set: Hydrosulfide production (DNS-N3 probe), summary across cell lines. The data set is classed as cell-based, human. The following applies: 48 h at IC50 concentration, all cell lines. The protocol:
PTEs-induced sulfide production was evaluated using dansyl azide (DNS-N3) as a probe. DNS-N3 is non-fluorescent itself, while in the presence of hydrosulfide, the azide transforms into the dansyl amide and fluorescence is switched on. After 48 h of treatment, cells were harvested, washed with PBS, and incubated in a PBS solution containing 200 μM DNS-N3. Following 30 min incubation at 37 °C, fluorescence increase was measured through a 575 nm band-pass filter. The levels of hydrosulfide production were assessed and reported in arbitrary units, calculated from the median fluorescence intensity (MFI) measurements. For all flow cytometric analyses, untreated cells (i.e., not exposed to PTE compounds) were used as negative controls.

Data set [5] relates to HCT116. Nature of the data set: Cell cycle distribution, flow cytometry, HCT116. The format is cell-based, human. The following applies: HCT116, 48 h at equitoxic (IC50) concentrations. The protocol: (§3) The potential of the tested PTE derivatives to induce apoptotic and/or necrotic cell death, as well as to cause alterations in cell cycle distribution, was evaluated following a 48 h exposure to their respective IC50 concentrations, using flow cytometric analysis as previously described. Briefly, the indicated cell lines were seeded in 12-well plates (3 × 10^5 cells/well) and treated 24 h post-seeding. At the end of the treatment period, following harvesting, cells were washed with PBS and fixed in ice-cold 70% ethanol at −20 °C for a minimum duration of 45 min, to assess apoptotic cell death and perform cell cycle analysis. After fixation, cells were washed again with PBS and stained with a propidium iodide (PI)/RNase solution (50 µg/mL PI and 30 U/mL RNase) in PBS for 15 min at room temperature.
(§4) Flow cytometric analysis was performed using a FACScalibur flow cytometer (Becton Dickinson, Milan, Italy), equipped with a 15 mW, 488 nm air-cooled argon ion laser. Data were acquired and analyzed with CellQuestPRO version 5.1 software. PI fluorescence was detected using a 575 nm band-pass filter. The percentage of apoptotic cells was determined by identifying sub-G1 peaks in monoparametric histograms obtained in logarithmic mode. For cell cycle distribution, PI fluorescence was also analyzed with monoparametric histograms, but data were collected in linear mode.

The subject of data set [6] is A549. Nature of the data set: MTT cell viability assay, A549. The data set is classed as cell-based. The conditions noted are these: Homo sapiens, A549, 48h treatment, mean ± S.D. As for the experimental part: as §1, §2
Data set [7] has as its system HCT116. Nature of the data set: Necrotic cell death, flow cytometry (PI without fixation), HCT116. The data set is classed as cell-based, human. The conditions noted are these: HCT116, 48 h treatment at IC50 concentration. The protocol:
as §3, §4
Necrotic cell death was assessed by omitting the ethanol fixation step from the staining protocol, thereby enabling propidium iodide (PI) to penetrate membrane-compromised cells, indicative of necrosis.

For data set [8], the system named is MCF7. Briefly: MTT cell viability assay, MCF7. The format is cell-based. The following applies: Homo sapiens, MCF7, 48h treatment, mean ± S.D. The protocol:
as §1, §2

In data set [9] the test system is MDA-MB231. Nature of the data set: MTT cell viability assay, MDA-MB231. The data set is classed as cell-based. The following applies: Homo sapiens, MDA-MB-231, MDA-MB231, 48h treatment, mean ± S.D. As for the experimental part:
as §1, §2

Data set [10] deals with MDA-MB231. Briefly: Intracellular ROS levels (DCFH-DA), MDA-MB231. The data set is classed as cell-based, human. The following applies: MDA-MB231, 48 h at IC50 concentration, vs. CTR. As for the experimental part: (§5) Intracellular ROS levels were quantified using 2′,7′-dichlorodihydrofluorescein diacetate (DCFH-DA) as a fluorescent probe. After 48 h of treatment, cells were collected, rinsed with PBS, and incubated in a PBS solution containing 10 µM DCFH-DA. Following incubation, fluorescence corresponding to oxidized fluorescein was measured using a 530 nm band-pass filter. ROS production was expressed in arbitrary units based on the median fluorescence intensity (MFI).

In data set [11] the test system is MCF7, MDA-MB231, A549 and HCT116 cells. Briefly: Apoptotic cell death, flow cytometry (sub-G1, PI). The data set is classed as cell-based, human. The conditions noted are these: 48 h treatment at IC50 concentration, vs. untreated controls. As for the experimental part:
as §3, §4

Data set [12] has the same test system. Nature of the data set: Intracellular ROS levels (DCFH-DA), summary across cell lines. The data set is classed as cell-based, human. The following applies: 48 h at IC50 concentration, four cell lines. As for the experimental part:
as §5

Data set [13] concerns MDA-MB231. Briefly: Cell cycle distribution, flow cytometry, MDA-MB231. The conditions noted are these: MDA-MB231, 48 h at equitoxic (IC50) concentrations. The data set is classed as cell-based, human. As for the experimental part: as §3, §4
For data set [14], the system named is MCF7. Briefly: Intracellular ROS levels (DCFH-DA), MCF7. The following applies: MCF7, 48 h at IC50 concentration, vs. CTR. The format is cell-based, human. As for the experimental part: as §5
For data set [15], the system named is HCT116. Nature of the data set: Intracellular ROS levels (DCFH-DA), HCT116. The data set is classed as cell-based, human. The conditions noted are these: HCT116, 48 h at IC50 concentration, vs. CTR. The protocol:
as §5

The subject of data set [16] is A549. Briefly: Cell cycle distribution, flow cytometry, A549. The data set is classed as cell-based, human. The following applies: A549, 48 h at equitoxic (IC50) concentrations. The protocol: as §3, §4
Data set [17] concerns MCF7. Nature of the data set: Cell cycle distribution, flow cytometry, MCF7. The format is cell-based, human. The following applies: MCF7, 48 h at equitoxic (IC50) concentrations. The protocol: as §3, §4

For the compound `OCCOc1c2c(c3ccccn13)SSSSS2` [2^Gly], the IC50 in the data set with HCT116 [1] was found to be 603 ± 40 nM; in data set [3], 1610 ± 130 nM; in the data set with A549 [6], 790 ± 60 nM; with MCF7 [8], 1130 ± 20 nM; in the data set with MDA-MB231 [9] it was 300 ± 30 nM. The “cytotoxic potency (in words)” value in data set [2] is listed as “highest cytotoxic potency”. In data set [4], the “sulfide production (in words)” value is “most potent inducers of sulfide production”. Further, the “cell cycle shift: decrease in the G0/G1 phase population with G2/M phase accumulation” value (“cell cycle shift: decrease” for short) in the data set on HCT116 [5] and in the data set with MDA-MB231 [13] was “triggered similar effects” each time. The “necrosis relative to apoptosis” value in the data set on HCT116 [7] is given as “higher levels of necrosis relative to apoptosis”. For the same compound, the “increase in ROS production” value in the data set with MDA-MB231 [10] is given as “statistically significant”. Also, the apoptotic cell death entry in data set [11] was “most potent inducers of apoptosis”. In addition, the “ROS production (ranking in words)” value in [12] is on record as “better ROS producers”.
As to `CCOc1c2c(c3ccc(C=O)cn13)SSSSS2` [3^CHO, 6-ethoxy-9-formyl-[1,2,3,4,5]pentathiepino [6,7-a]indolizine], the IC50 with HCT116 [1] is 740 ± 60 nM; in data set [3] it was 1900 ± 120 nM; with A549 [6], 1030 ± 40 nM; in the data set on MCF7 [8], 1700 ± 30 nM; with MDA-MB231 [9] it was 390 ± 40 nM. Further, in [2], the “cytotoxic potency (in words)” value is “highest cytotoxic potency”. The “increase in ROS production” value in the data set with MCF7 [14] and in the data set with MDA-MB231 [10] was “statistically significant” each time. Besides, the “sulfide production (in words)” value in data set [4] is “most potent inducers of sulfide production”. Besides, in the data set with HCT116 [7], the “necrosis relative to apoptosis” value was “higher levels of necrosis relative to apoptosis”. Besides, the apoptotic cell death entry in [11] is reported as “most potent inducers of apoptosis”. In addition, in [12], the “ROS production (ranking in words)” value is reported as “better ROS producers”. The “cell cycle shift: decrease” value in the data set on MDA-MB231 [13] is reported as “exerted this effect exclusively in MDA-MB231 cells”.
On to `CCOc1c2c(c3ccc([N+](=O)[O-])cn13)SSSSS2` [3^NO2], for which the IC50 worked out at 1590 ± 150 nM in the data set on HCT116 [1]; 2870 ± 140 nM in [3]; 3220 ± 390 nM in the data set with A549 [6]; 3210 ± 130 nM in the data set with MCF7 [8]; 630 ± 750 nM with MDA-MB231 [9]. Also, the “cytotoxic potency (in words)” value in data set [2] is reported as “noteworthy efficacy”. Further, the “increase in ROS production” value with MCF7 [14] and in the data set with MDA-MB231 [10] was “statistically significant” in each case. In addition, the apoptotic cell death entry in [11] is listed as “most potent inducers of apoptosis”.
`CCOc1c2c(c3ccccn13)SSSSS2` [compound 1]: the “increase in ROS production” value with HCT116 [15], in the data set with MCF7 [14] and with MDA-MB231 [10] was “statistically significant” each time. The IC50 was 830 ± 40 nM with HCT116 [1]; 7320 ± 150 nM in data set [3]; 1540 ± 80 nM in the data set with A549 [6]; 2680 ± 310 nM in the data set with MCF7 [8]; 630 ± 40 nM with MDA-MB231 [9]. Moreover, in data set [2], the “cytotoxic potency (in words)” value is “noteworthy efficacy”. The “sulfide production (in words)” value in data set [4] is “most potent inducers of sulfide production”. Also, the “cell cycle shift: decrease” value with HCT116 [5], in the data set with A549 [16], in the data set on MDA-MB231 [13] and in the data set with MCF7 [17] was “induced this characteristic cell cycle shift” each time. Further, the apoptotic cell death result in data set [11] is given as “most potent inducers of apoptosis”. In [12], the “ROS production (ranking in words)” value was “better ROS producers”.
`COc1cccc2c1C(=O)c1c(O)c3c(c(O)c1C2=O)C[C@@](O)(C(=O)CO)C[C@@H]3O[C@H]1C[C@H](N)[C@H](O)[C@H](C)O1` [doxo, doxorubicin, reference compound]: the IC50 in the data set with HCT116 [1] was determined as 3500 ± 600 nM; with A549 [6], 1500 ± 210 nM; with MCF7 [8], 4500 ± 510 nM; in the data set on MDA-MB231 [9] it was 17800 ± 1960 nM.
